≈ marks a conversion by molar mass, not a printed value. Where two headings read alike, the source gives them in different places.
Columns and labels:
[1] = Aqueous (FaSSIF) solubility; type: physicochemical; settings: fasted state simulated intestinal fluid (FaSSIF); for solubility at 16 h: kinetic from dmso stock, pH 6.5, three replicates, read-out: Solubility (1); for solubility: pH 6.8, two replicates, read-out: Solubility (2)
Procedure: Solubility was measured by equilibration of the compound in fasted state simulated intestinal fluid (FaSSIF) and quantified by high-performance liquid chromatography (HPLC).
Aqueous solubility was measured by equilibration of compounds with fasted state simulated intestinal fluid (FaSSIF) and quantified spectrophotometrically.
FaSSIF was prepared as described below:
Preparation of blank FaSSIF: 0.21 g of sodium hydroxide (NaOH) pellets, 1.97 g of dihydrogen sodium phosphate (NaH2PO4.2H2O) and 3.09 g of sodium chloride (NaCl) were dissolved in 400 mL of deionised water. […]
Preparation of FaSSIF: 0.056 g of SIF Powder (containing sodium taurocholate and lecithin) (Phares AG) was dissolved in 25 mL of blank FaSSIF and stirred until the powder was completely dissolved. The solution was allowed to stand for 2 hours during which it became opalescent; it was used within 24 hours. The final solution composition was characterised as follows: • Sodium taurocholate: 3 mM • Lecithin: 0.75 mM • Osmolarity: 270±10 mOsmol • pH: 6.5
The optical density was measured at the end of the incubation period for test compounds and a reference used to determine solubility. In brief, two samples were prepared for each determination: a reference sample consisting of a stock solution of test compound in DMSO diluted in system solution (a phosphate free, low absorption buffer) and propanol; and a test sample (prepared in triplicate) consisting of 0.5 mL FaSSIF spiked with test compound at 0.2 mM. Each sample was incubated at room temperature for 16 hours with constant shaking at 250 rpm. At the end of the incubation period, 0.3 mL of each sample was filtered through a pION filter plate (PION, Woburn Mass.), diluted 1:1 with propanol and scanned using UV spectrophotometry at λmax ([…]) using a Spectra Max Plus—Version 2.1000 (Molecular Devices, Sunnyvale, Calif.), with μSOL Explorer solubility determination software (pION, Woburn, Mass.).
FaSSIF solubility was calculated using the following formula:
[formula] wherein: • “OD” is the optical density; • “Cr” is the concentration of the reference (33.4 μM); and • “molecular weight” is for the test compound (e.g., 381.44 for ABD735).

[2] = Rodent pharmacokinetics study; type: in vivo, Sprague-Dawley rats; settings: rat; for half-life: male, Sprague-Dawley, plasma, elimination phase half-life; for i.v. AUC: intravenous 1 mg/kg; for p.o. AUC: oral 5 mg/kg in 0.5% CMC/0.1% Tween-80 (HMC-C-01-A in 2% dimethylacetamide/20% hydroxypropyl-β-cyclodextrin); for Bioavail, F: tentative oral bioavailability, F=AUC(p.o.)×Dose(i.v.)/AUC(i.v.)×Dose(p.o.)
Procedure: Absorption and metabolic stability were studied using an in vivo pharmacokinetics assay.
Three male Sprague-Dawley rats, aged 8-12 weeks, were dosed with test compounds administered either orally or intravenously (dose level of 1 mg/kg body weight intravenous or 5 mg/kg body weight orally). Test compounds were formulated in 0.5% carboxymethylcellulose (CMC)/0.1% Tween-80 for administration via the oral route, or in 5% DMSO/10% solutol in saline for administration via the intravenous route. For compound HMC-C-01-A the oral administration was formulated in 2% dimethylacetamide/20% hydroxypropyl-β-cyclodextrin in water. Animals were given free access to food throughout the study except for fasting overnight and until 2 hours post dose on the day of dosing.
Blood samples were taken from the retro-orbital plexus at the following time points and placed in microtubes containing 20% K2EDTA solution:
Oral Dosing: predose; 0.25, 0.5, 1, 2, 4, 6, 8, and 24 hours post dose.
Intravenous Dosing: predose; 0.08, 0.25, 0.5, 1, 2, 4, 8, and 24 hours post dose.
Blood samples were centrifuged to obtain plasma, which was transferred to a separate container and frozen at −20° C.
For analysis, samples were thawed at room temperature and prepared by protein precipitation with acetonitrile spiked with internal standard (500 ng/mL glipizide) in the ratio 1:4 with plasma. The samples were then vortexed for 5 minutes and centrifuged for 10 minutes at 20,600×g at 4° C. 100 μL of the supernatant was collected for analysis. The standard samples were prepared similarly, after spiking blank rat plasma samples with 10 μL of analyte.
The pharmacokinetic parameters for the test compounds were calculated by Phoenix WinNonlin version 6.3 (Pharsight Corp, CA) using standard non-compartmental methods. Peak plasma concentrations (Cmax) and time of the peak plasma concentration (Tmax) were the observed values. The area under the plasma concentration-time curve (AUC) was determined by use of the linear trapezoidal rule up to the last measurable concentration (AUClast) and thereafter by extrapolation of the terminal elimination phase to infinity (AUCinf). The terminal elimination rate constant (kel) was determined by regression analysis of the linear terminal portion of the log plasma concentration-time curve. The elimination phase half-life (t1/2) was calculated as 0.693/kel.

[3] = tested on: IL-6 release from LPS-stimulated Thp1 macrophages; experiment: Thp1 Macrophage IL-6 Release Assay; type: cell-based; settings: Homo sapiens
From the text: Anti-inflammatory effects were further characterised by assessing the production of interleukin-6 (IL-6) by human Thp-1 derived macrophages stimulated with a pro-inflammatory stimulus bacterial lipopolysaccharide (LPS). LPS acts with a cell-surface receptor, Toll-like receptor-4 to activate the NFκB and IRF signalling pathways to produce IL-6. The reduction of IL—in this stimulated assay is indicative of anti-inflammatory effects with utility in the treatment of conditions in which IL-6 production is aberrant.
In vitro potency of test compounds in human cells was determined by incubation with Thp1 macrophages and subsequent stimulation with an inflammatory stimulus (bacterial lipopolysaccharide (LPS)) followed by measurement of cellular interleukin-6 (IL-6) release.
Thp1 cells were plated at a concentration of 1×10^5 cells/well or 1.7×10^5 cells/well in 500 μL or 150 μL RPMI complete media containing 1% penicillin-streptomycin and 10% heat inactivated foetal bovine serum in 24-well plates or 96-well plates, respectively and allowed to adhere overnight. The following day, the cells were stimulated with phorbol myristic acid (PMA) at a final concentration of 100 nM (24-well plates) or 200 nM (96-well plates) to induce differentiation and maintained for up to 8 days with a medium change at 5 days if cells were cultured to 8 days. Test compounds were prepared as […] solutions in DMSO and then serially diluted in DMSO prior to dilution in culture medium.
The diluted compounds were added to the cultures 1 hour prior to stimulation with 100 ng/mL LPS. Following a 16 or 18 hour incubation at 37° C./5% CO2, the cell culture medium was collected and assayed for human IL-6 levels using the human IL-6 duo-set ELISA kit (R&D Systems). The average results for each test compound (n=3) were expressed as a percent (%) of the average control value. The average values across the concentrations tested were then plotted and the IC50 for the inhibition of IL-6 was calculated by fitting the data to a 4-parameter IC50 equation using software from Grafit version 6.0.12 (Erithacus Software Ltd., by Dr Robin Leatherbarrow) or GraphPad Prism version 5.04 for Windows (GraphPad Software, La Jolla, Calif., USA, www.qraphpad.com). Each experiment was repeated twice and the data are presented as the mean IC50 from both experiments.

[4] = THP-1, 1 × 10^5 cells/well, 24-well plates, 8 days, 6 point curve, IL6 measured 16 hours after LPS, read-out: IC50 (1)
[5] = THP-1, 1.7 × 10^5 cells/well, 96-well plates, 3 days, 9 point curve, IL6 measured 18 hours after LPS, read-out: IC50 (2)

| Structure (SMILES) | solubility at 16 h [1] [µg/mL] | half-life [2] [h] | i.v. AUC [2] [ng·min/mL] | p.o. AUC [2] [ng·h/mL] | Bioavail, F [2] [%] | IC50 [3, 4] [nM] | IC50 [3, 5] [nM] | solubility [1] [µg/mL] |
| --- | --- | --- | --- | --- | --- | --- | --- | --- |
| C[C@]1(O)CC[C@H](NS(=O)(=O)c2ccc(-c3ncc(F)cc3F)c(F)c2)CC1 [HMC-N-01-A, 4-(3,5-Difluoropyridin-2-yl)-3-fluoro-N-((1r,4r)-4-hydroxy-4-methylcyclohexyl)benzenesulfonamide] | 30 (≈ 74.9 µM) | 13.4 | 740 | 23.5 | 64 | 130 | 280 | – |
| C[C@]1(O)CC[C@@H](NS(=O)(=O)c2ccc(-c3ccc(Cl)cc3C#N)cc2)CC1 [HMC-C-01-B, 4′-Chloro-2′-cyano-N-((1s,4s)-4-hydroxy-4-methylcyclohexyl)-[1,1′-biphenyl]-4-sulfonamide] | – | 5.7 | 1539 | 85.3 | 67 | – | 60 | 80 (≈ 198 µM) |
| C[C@]1(O)CC[C@@H](NS(=O)(=O)c2ccc(-c3ncc(F)cc3F)c(F)c2)CC1 [HMC-N-01-B, 4-(3,5-Difluoropyridin-2-yl)-3-fluoro-N-((1s,4s)-4-hydroxy-4-methylcyclohexyl)benzenesulfonamide] | – | 9.1 | 2824 | 141 | 60 | – | 30 | 120 (≈ 300 µM) |
| C[C@]1(O)CC[C@@H](NS(=O)(=O)c2ccc(-c3c(F)cc(F)cc3F)cc2)CC1 [HMC-C-03-B, 2′,4′,6′-Trifluoro-N-((1s,4s)-4-hydroxy-4-methylcyclohexyl)-[1,1′-biphenyl]-4-sulfonamide] | – | 8.3 | – | 157 | 116 | – | 20 | 150 (≈ 376 µM) |
| C[C@]1(O)CC[C@H](NS(=O)(=O)c2ccc(-c3ncc(F)cc3F)cc2)CC1 [HMC-N-02-A, 4-(3,5-Difluoropyridin-2-yl)-N-((1r,4r)-4-hydroxy-4-methylcyclohexyl)benzenesulfonamide] | 20 (≈ 52.3 µM) | 6.3 | – | 55 | 43 | 150 | 290 | – |
